Laboratory results: ChEMBL document CHEMBL1201862, “PubChem BioAssay data set” (2004)
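Method: 48-hour compound exposure of cells in 96-well plates, five concentrations, linear interpolation of endpoints. At the GI50, growth is halved.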 Calls of active or inactive are those of the source. No stated cut-off is given here; in the data, active = GI50 up to about 1.1 µM and inactive = higher.

Key:
Test in all cases: growth of human tumour cells (NCI), 48 h
MOLT-4 = test system: MOLT-4
DMS-273 = test system: DMS-273
OVCAR-8 = test system: OVCAR-8
UO-31 = test system: UO-31
HL-60 = test system: HL-60
RXF 631 = test system: RXF 631
SN12C = test system: SN12C
UACC-62 = test system: UACC-62
KM12 = test system: KM12
HT-29 = test system: HT-29
K562 = test system: K562
IGROV-1 = test system: IGROV-1
M14 = test system: M14
HOP-62 = test system: HOP-62
TK-10 = test system: TK-10
SK-MEL-28 = test system: SK-MEL-28
NCI-H226 = test system: NCI-H226
SK-MEL-2 = test system: SK-MEL-2
DMS-114 = test system: DMS-114
HCT-116 = test system: HCT-116
SNB-78 = test system: SNB-78
SNB-75 = test system: SNB-75
SNB-19 = test system: SNB-19
M19-MEL = test system: M19-MEL
CCRF-CEM = test system: CCRF-CEM
SK-MEL-5 = test system: SK-MEL-5
OVCAR-4 = test system: OVCAR-4
EKVX = test system: EKVX
HOP-92 = test system: HOP-92
DLD-1 = test system: DLD-1
NCI-H460 = test system: NCI-H460
COLO 205 = test system: COLO 205
U-251 = test system: U-251
RPMI-8226 = test system: RPMI-8226
UACC-257 = test system: UACC-257
A549 = test system: A549
SK-OV-3 = test system: SK-OV-3
SF-295 = test system: SF-295
SW-620 = test system: SW-620
SF-268 = test system: SF-268
SR = test system: SR
NCI-H23 = test system: NCI-H23
SF-539 = test system: SF-539
LOX IMVI = test system: LOX IMVI
Malme-3M = test system: Malme-3M
ACHN = test system: ACHN
OVCAR-3 = test system: OVCAR-3
KM-20L2 = test system: KM-20L2
RXF 393 = test system: RXF 393
A498 = test system: A498
HCT-15 = test system: HCT-15
LXFL 529 = test system: LXFL 529
OVCAR-5 = test system: OVCAR-5
HCC 2998 = test system: HCC 2998
HOP-18 = test system: HOP-18
786-0 = test system: 786-0
XF498 = test system: XF498
CAKI-1 = test system: CAKI-1

## Nc1nc(Cl)cc(NCCCCO)n1
MOLT-4
  GI50: > 100 µM (inactive)
DMS-273
  GI50: > 100 µM (inactive)
OVCAR-8
  GI50: > 100 µM (inactive)
UO-31
  GI50: > 100 µM (inactive)
HL-60
  GI50: > 100 µM (inactive)
RXF 631
  GI50: > 100 µM (inactive)
SN12C
  GI50: > 100 µM (inactive)
UACC-62
  GI50: > 100 µM (inactive)
KM12
  GI50: > 100 µM (inactive)
HT-29
  GI50: > 100 µM (inactive)
K562
  GI50: > 100 µM (inactive)
IGROV-1
  GI50: > 100 µM (inactive)
M14
  GI50: > 10 µM (inactive)
HOP-62
  GI50: > 10 µM (inactive)
TK-10
  GI50: > 100 µM (inactive)
SK-MEL-28
  GI50: > 100 µM (inactive)
NCI-H226
  GI50: > 100 µM (inactive)
SK-MEL-2
  GI50: > 100 µM (inactive)
DMS-114
  GI50: > 100 µM (inactive)
HCT-116
  GI50: > 100 µM (inactive)
SNB-78
  GI50: 15.9 µM (inactive)
SNB-75
  GI50: 65.3 µM (inactive)
SNB-19
  GI50: > 100 µM (inactive)
M19-MEL
  GI50: > 100 µM (inactive)
CCRF-CEM
  GI50: > 100 µM (inactive)
SK-MEL-5
  GI50: > 100 µM (inactive)
OVCAR-4
  GI50: > 100 µM (inactive)
EKVX
  GI50: > 100 µM (inactive)
HOP-92
  GI50: > 100 µM (inactive)
DLD-1
  GI50: > 100 µM (inactive)
NCI-H460
  GI50: > 100 µM (inactive)
COLO 205
  GI50: > 100 µM (inactive)
U-251
  GI50: > 100 µM (inactive)
RPMI-8226
  GI50: > 100 µM (inactive)
UACC-257
  GI50: > 100 µM (inactive)
A549
  GI50: > 100 µM (inactive)
SK-OV-3
  GI50: > 100 µM (inactive)
SF-295
  GI50: > 100 µM (inactive)
SW-620
  GI50: > 100 µM (inactive)
SF-268
  GI50: > 100 µM (inactive)
SR
  GI50: > 100 µM (inactive)
NCI-H23
  GI50: > 100 µM (inactive)
SF-539
  GI50: > 100 µM (inactive)
LOX IMVI
  GI50: > 100 µM (inactive)
Malme-3M
  GI50: > 100 µM (inactive)
ACHN
  GI50: > 100 µM (inactive)
OVCAR-3
  GI50: > 10 µM (inactive)
KM-20L2
  GI50: > 100 µM (inactive)
RXF 393
  GI50: > 100 µM (inactive)
A498
  GI50: > 100 µM (inactive)
HCT-15
  GI50: > 100 µM
LXFL 529
  GI50: > 100 µM (inactive)
OVCAR-5
  GI50: > 100 µM (inactive)
HCC 2998
  GI50: > 100 µM (inactive)

## COC12CCC(=O)C=C1c1ccccc1N2C(C)=O (stereo not drawn)
MOLT-4
  GI50: > 100 µM (inactive)
DMS-273
  GI50: > 100 µM (inactive)
OVCAR-8
  GI50: > 100 µM (inactive)
UO-31
  GI50: > 100 µM (inactive)
HL-60
  GI50: > 100 µM (inactive)
SN12C
  GI50: > 100 µM (inactive)
UACC-62
  GI50: > 100 µM (inactive)
KM12
  GI50: > 100 µM (inactive)
HT-29
  GI50: > 100 µM (inactive)
K562
  GI50: > 100 µM (inactive)
IGROV-1
  GI50: > 100 µM (inactive)
HOP-62
  GI50: > 100 µM (inactive)
SK-MEL-28
  GI50: > 100 µM (inactive)
SK-MEL-2
  GI50: > 100 µM (inactive)
DMS-114
  GI50: > 100 µM (inactive)
HCT-116
  GI50: > 100 µM (inactive)
SNB-78
  GI50: > 100 µM (inactive)
SNB-75
  GI50: > 100 µM (inactive)
SNB-19
  GI50: > 100 µM (inactive)
HOP-18
  GI50: > 100 µM (inactive)
M19-MEL
  GI50: > 100 µM (inactive)
CCRF-CEM
  GI50: > 100 µM (inactive)
OVCAR-4
  GI50: > 100 µM (inactive)
786-0
  GI50: > 100 µM (inactive)
EKVX
  GI50: > 100 µM (inactive)
HOP-92
  GI50: < 0.01 µM (active)
DLD-1
  GI50: > 100 µM (inactive)
NCI-H460
  GI50: > 100 µM (inactive)
COLO 205
  GI50: > 100 µM (inactive)
U-251
  GI50: > 100 µM (inactive)
XF498
  GI50: > 100 µM (inactive)
RPMI-8226
  GI50: > 100 µM (inactive)
UACC-257
  GI50: > 100 µM (inactive)
A549
  GI50: > 100 µM (inactive)
SK-OV-3
  GI50: > 100 µM (inactive)
SF-295
  GI50: > 100 µM (inactive)
SW-620
  GI50: > 100 µM (inactive)
CAKI-1
  GI50: > 100 µM (inactive)
SR
  GI50: > 100 µM (inactive)
NCI-H23
  GI50: > 100 µM (inactive)
SF-539
  GI50: > 100 µM (inactive)
ACHN
  GI50: > 100 µM (inactive)
OVCAR-3
  GI50: > 100 µM (inactive)
KM-20L2
  GI50: > 100 µM (inactive)
RXF 393
  GI50: > 100 µM (inactive)
A498
  GI50: > 100 µM (inactive)
HCT-15
  GI50: > 100 µM
LXFL 529
  GI50: > 100 µM (inactive)
HCC 2998
  GI50: > 100 µM (inactive)
